From US9546179B2, “Heterocycle amido alkyloxy substituted quinazoline derivative and use thereof” (priority 2011, dated 2017)

These compounds were tested against T1, receptor tyrosine kinase EGFR (Homo sapiens, UniProt P00533) (assay: Inhibitory effect on receptor tyrosine kinase EGFR (ELISA, Poly(Glu, Tyr)4:1, PY99 antibody)). Conditions: ATP 4 μM, 1 hour at 37° C.
T1 construct: purchased Shanghai 3bio Technology Co., Ltd. Lot No. 4018780925
Assay type: biochemical
Description: Poly(Glu, Tyr)4:1 was diluted into 100 μg/ml by PBS without potassium. Enzyme label plate was coated with 37 μl/well at 37° C. overnight,
The liquid in the wells was removed. The plate was rinsed by T-PBS for 5 minutes, and dried at 37° C. after repeated 3 times.
The testing sample was diluted to the concentration concerned by reaction buffer solution, and added into the wells of the coated enzyme label plate. The concentration diluted should realize 1.0000 μg/ml, 0.1250 μg/ml, 0.0156 μg/ml, 0.00195 μg/ml and 0.00024 μg/ml in the 100 μl reaction.
Adding in ATP solution (4 μM of final concentration) diluted by reaction buffer solution,
Finally, the tyrosine kinase diluted by reaction buffer solution was added, and forming the reaction with 100 μl total volume.
Meanwhile, negative control wells and enzyme-free control wells were prepared. The reaction was kept in the dark wet box for 1 hour at 37° C. The plate was rinsed by T-PBS for three times after the reaction ended, and blocked by 1% BSA […] for 30 min, and then, PY99 antibody (1:1000 diluted by 0.05% PBST with 1% BSA) was added in 100 μl/well. After incubated at 37° C. for 30 minutes, the plate was rinsed by T-PBS for three times, and the goat anti-mouse IgG marked with HRP (1 mg/ml 1:1000 diluted by 0.05% PBST with 1% BSA) was then added in 100 μl/well. After incubated at 37° C. for 30 minutes, the plate was rinsed by T-PBS for three times.
Colorimetric solution OPD was added in 100 μl/well for 20 minutes' reaction in the dark side at the room temperature. Colorimetric substrate solution OPD was the solution of 0.1 mol/L citric acid-disodium hydrogen phosphate buffer (pH 5.0) with 20 mmol/L OPD and 12 mmol/L H2O2 (freshly prepared when using).
50 μl of 2M H2SO4 (2 mol/L sulfuric acid containing 0.1 mol/L sodium sulfate) was added in to terminate the reaction, and the A492 value was read with adjustable wavelength micro late enzyme-labeling instrument VERSAmax.
The inhibition rate of samples is calculated by the following formula: […]

T1 sequence (P00533 25-1210): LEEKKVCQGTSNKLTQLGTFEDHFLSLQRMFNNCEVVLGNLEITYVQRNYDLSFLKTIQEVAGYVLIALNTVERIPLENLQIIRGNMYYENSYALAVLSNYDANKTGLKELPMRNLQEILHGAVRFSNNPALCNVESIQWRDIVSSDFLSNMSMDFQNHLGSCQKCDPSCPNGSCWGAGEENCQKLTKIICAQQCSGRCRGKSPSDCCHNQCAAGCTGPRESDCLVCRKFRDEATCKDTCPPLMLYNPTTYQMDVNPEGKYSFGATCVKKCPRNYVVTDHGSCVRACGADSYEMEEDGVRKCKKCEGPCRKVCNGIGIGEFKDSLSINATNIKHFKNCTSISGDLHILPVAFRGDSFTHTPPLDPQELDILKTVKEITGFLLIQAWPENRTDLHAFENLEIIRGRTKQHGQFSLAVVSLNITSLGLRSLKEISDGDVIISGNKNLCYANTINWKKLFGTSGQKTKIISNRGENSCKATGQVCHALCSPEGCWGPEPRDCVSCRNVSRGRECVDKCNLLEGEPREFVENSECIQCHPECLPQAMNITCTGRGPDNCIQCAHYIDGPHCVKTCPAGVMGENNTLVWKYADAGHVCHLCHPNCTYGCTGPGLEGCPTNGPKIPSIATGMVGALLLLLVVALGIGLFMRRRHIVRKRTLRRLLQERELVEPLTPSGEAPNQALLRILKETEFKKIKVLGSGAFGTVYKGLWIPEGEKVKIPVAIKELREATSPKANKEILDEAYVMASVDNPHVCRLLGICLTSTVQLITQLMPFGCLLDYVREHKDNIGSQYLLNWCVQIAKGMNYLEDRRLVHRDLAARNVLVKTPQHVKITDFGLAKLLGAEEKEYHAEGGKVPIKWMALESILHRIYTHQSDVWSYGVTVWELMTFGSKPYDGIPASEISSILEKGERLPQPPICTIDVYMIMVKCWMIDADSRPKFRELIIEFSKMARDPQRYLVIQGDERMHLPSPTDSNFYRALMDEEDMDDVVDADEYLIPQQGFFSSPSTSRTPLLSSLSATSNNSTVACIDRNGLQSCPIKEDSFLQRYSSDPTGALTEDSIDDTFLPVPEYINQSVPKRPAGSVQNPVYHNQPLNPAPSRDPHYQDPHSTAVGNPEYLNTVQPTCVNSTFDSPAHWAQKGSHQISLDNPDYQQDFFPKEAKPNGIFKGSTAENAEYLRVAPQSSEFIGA

IC50 [nM] | Compound
10 to 100 | C#Cc1cccc(Nc2ncnc3cc(OC)c(OCCCN4CCC5(CCN(C)C5=O)C4)cc23)c1 (centres unmarked) [Example 71, 4-(3′-ethynylphenylamino)-6-[3-(2-methyl-2,7-diazaspiro[4.4]-nonane-1-ketone-7-yl)-propoxy]-7-methoxyquinazoline]
10 to 100 | C#Cc1cccc(Nc2ncnc3cc(OC)c(OCCCN4CC5(CCOCC5)C4)cc23)c1 [Example 39, 4-(3′-ethynylphenylamino)-6-[3-(7-oxa-2-azaspiro[3.5]nonane-2-yl)-propoxy]-7-methoxyquinazoline]
100 to 1000 | COc1cc2ncnc(Nc3ccc(F)c(Cl)c3)c2cc1OCCN1CCC2(CC1)CNC(=O)O2 [Example 58, 4-(3′-chloro-4′-fluorophenylamino)-6-[2-(1-oxa-3,8-diazaspiro[4.5]decane-2-ketone-8-yl)-oxethyl]-7-methoxyquinazoline]
10 to 100 | COc1cc2ncnc(Nc3ccc(F)c(Cl)c3)c2cc1OCCCN1CC[C@H]2OCC[C@H]21 (relative stereo) [Example 78, 4-(3′-chloro-4′-fluorophenylamino)-6-[3-(cis-hexahydrofuro[3,2-b]pyrrole-4-yl)-propoxy]-7-methoxyquinazoline]
10 to 100 | COc1cc2ncnc(Nc3cc(Cl)ccc3F)c2cc1OCCCN1CCC2(CC1)CCN(C)C2=O [Example 26, 4-(5′-chloro-2′-fluorophenylamino)-6-[3-(2-methyl-2,8-diazaspiro[4.5]decane-1-ketone-8-yl)-propoxy]-7-methoxyquinazoline]
0.1 to 10 | C#Cc1cccc(Nc2ncnc3cc(OC)c(OCCCN4CC[C@H]5OCC[C@H]54)cc23)c1 (relative stereo) [Example 50, 4-(3′-ethynylphenylamino)-6-[3-(cis-hexahydrofuro[3,2-b]pyrrole-4-yl)-propoxy]-7-methoxyquinazoline]
0.1 to 10 | [2H]C([2H])([2H])Oc1cc2ncnc(Nc3ccc(F)c(Cl)c3)c2cc1OCCCN1CC2(C1)CN(C)C(=O)O2 [Example 98, 4-(3′-chloro-4′-fluorophenylamino)-6-[3-(7-methyl-5-oxa-2,7-diazaspiro[3.4]octane-6-ketone-2-yl)-propoxy]-7-deuterated methoxyquinazoline]
10 to 100 | COc1cc2ncnc(Nc3ccc(F)c(Cl)c3)c2cc1OCCCN1CC2(CNC(=O)C2)C1 [Example 86, 4-(3′-chloro-4′-fluorophenylamino)-6-[3-(2,6-diazaspiro[3.4]octane-7-ketone-2-yl)-propoxy]-7-methoxyquinazoline]
100 to 1000 | COc1cc2ncnc(Nc3ccc(F)c(Cl)c3)c2cc1OCCN1CC2(CNC(=O)O2)C1 [Example 60, 4-(3′-chloro-4′-fluorophenylamino)-6-[2-(5-oxa-2,7-diazaspiro[3.4]octane-6-ketone-2-yl)-oxethyl]-7-methoxyquinazoline]
10 to 100 | COc1cc2ncnc(Nc3cc(Cl)ccc3F)c2cc1OCCCN1CC2(CNC(=O)C2)C1 [Example 27]
10 to 100 | C#Cc1cccc(Nc2ncnc3cc(OC)c(OCCCN4CCC5(CCC(=O)N5)CC4)cc23)c1 [Example 74, 4-(3′-ethynylphenylamino)-6-[3-(1,8-diazaspiro[4.5]decane-2-ketone-8-yl)-propoxy]-7-methoxyquinazoline]
> 1000 | COc1cc2ncnc(Nc3ccc(F)c(Cl)c3)c2cc1OCCCN1C[C@@H]2CN(C(=O)OC(C)(C)C)C[C@@H]2C1 [Example 88, 4-(3′-chloro-4′-fluorophenylamino)-6-[3-(5-tertbutyloxycarbonyl-hexahydropyrrolo[3,4-c]pyrrole-2-yl)-propoxy]-7-methoxyquinazoline]
10 to 100 | COc1cc2ncnc(Nc3ccc(F)c(Cl)c3)c2cc1OCCCN1CCC2(CCC(=O)N2)CC1 [Example 84, 4-(3′-chloro-4′-fluorophenylamino)-6-[3-(1,8-diazaspiro[4.5]decane-2-ketone-8-yl)-propoxy]-7-methoxyquinazoline]
0.1 to 10 | COc1cc2ncnc(Nc3ccc(F)c(Cl)c3)c2cc1OCCCN1CC2(CNC(=O)O2)C1 [Example 90, 4-(3′-chloro-4′-fluorophenylamino)-6-[3-(5-oxa-2,7-diazaspiro[3.4]octane-6-ketone-2-yl)-propoxy]-7-methoxyquinazoline]
100 to 1000 | COc1cc2ncnc(Nc3ccc(F)c(Cl)c3)c2cc1OCCN1CCC2(CC1)CNC(=O)C2 [Example 63, 4-(3′-chloro-4′-fluorophenylamino)-6-[2-(2,8-diazaspiro[4.5]decane-3-ketone-8-yl)-oxethyl]-7-methoxyquinazoline]
10 to 100 | C#Cc1cccc(Nc2ncnc3cc(OC)c(OCCCN4CCC5(CC4)CNC(=O)O5)cc23)c1 [Example 46, 4-(3′-ethynylphenylamino)-6-[3-(1-oxa-3,8-diazaspiro[4.5]decane-2-ketone-8-yl)-propoxy]-7-methoxyquinazoline]
0.1 to 10 | COc1cc2ncnc(Nc3ccc(F)c(Cl)c3)c2cc1OCCCN1CCC2(CC1)CC(=O)N(C)C2 [Example 83, 4-(3′-chloro-4′-fluorophenylamino)-6-[3-(2-methyl-2,8-diazaspiro[4.5]decane-3-ketone-8-yl)-propoxy]-7-methoxyquinazoline]
10 to 100 | COc1cc2ncnc(Nc3ccc(F)c(Cl)c3)c2cc1OCCCN1CCC2(CCN(C(C)=O)C2)C1 (centres unmarked) [Example 92, 4-(3′-chloro-4′-fluorophenylamino)-6-[3-(7-acetyl-2,7-diazaspiro[4.4]-nonane-2-yl)-propoxy]-7-methoxyquinazoline]
100 to 1000 | [2H]C([2H])([2H])Oc1cc2ncnc(Nc3ccc(F)c(Cl)c3)c2cc1OCCCN1CC2(CNC(=O)O2)C1 [Example 97, 4-(3′-chloro-4′-fluorophenylamino)-6-[3-(5-oxa-2,7-diazaspiro[3.4]octane-6-ketone-2-yl)-propoxy]-7-deuterated methoxyquinazoline]
100 to 1000 | COc1cc2ncnc(Nc3ccc(F)c(Cl)c3)c2cc1OCCN1CCC2(CCNC2=O)C1 (centres unmarked) [Example 55, 4-(3′-chloro-4′-fluorophenylamino)-6-[2-(2,7-diazaspiro[4.4]-nonane-1-ketone-7-yl)-oxethyl]-7-methoxyquinazoline]
10 to 100 | COc1cc2ncnc(Nc3ccc(F)c(Cl)c3)c2cc1OCCCN1CC2(C1)CN(C)C(=O)O2 [Example 91, 4-(3′-chloro-4′-fluorophenylamino)-6-[3-(7-methyl-5-oxa-2,7-diazaspiro[3.4]octane-6-ketone-2-yl)-propoxy]-7-methoxyquinazoline]
100 to 1000 | COc1cc2ncnc(Nc3ccc(F)c(Cl)c3)c2cc1OCCN1CC2(COC2)C1 [Example 62, 4-(3′-chloro-4′-fluorophenylamino)-6-[2-(2-oxa-6-azaspiro[3.3]heptane-6-yl)-oxethyl]-7-methoxyquinazoline]
10 to 100 | COc1cc2ncnc(Nc3ccc(F)c(Cl)c3)c2cc1OCCCN1CCC2(CC1)CNC(=O)C2 [Example 94, 4-(3′-chloro-4′-fluorophenylamino)-6-[3-(2,8-diazaspiro[4.5]decane-3-ketone-8-yl)-propoxy]-7-methoxyquinazoline]
> 1000 | COc1cc2ncnc(Nc3ccc(F)c(Cl)c3)c2cc1OCCN1CCC2(CC1)CC(=O)N(C)C2 [Example 56, 4-(3′-chloro-4′-fluorophenylamino)-6-[2-(2-methyl-2,8-diazaspiro[4.5]decane-2-ketone-8-yl)-oxethyl]-7-methoxyquinazoline]
10 to 100 | C#Cc1cccc(Nc2ncnc3cc(OC)c(OCCCN4CCC5(C4)CN(C)C(=O)O5)cc23)c1 (centres unmarked) [Example 47, 4-(3′-ethynylphenylamino)-6-[3-(3-methyl-1-oxa-3,7-diazaspiro[4.4]nonane-2-ketone-7-yl)-propoxy]-7-methoxyquinazoline]
10 to 100 | COc1cc2ncnc(Nc3cc(Cl)ccc3F)c2cc1OCCCN1CC2(CCOCC2)C1 [Example 18, 4-(5′-chloro-2′-fluorophenylamino)-6-[3-(7-oxa-2-azaspiro[3.5]-nonane-2-yl)-propoxy]-7-methoxyquinazoline]
10 to 100 | C#Cc1cccc(Nc2ncnc3cc(OC)c(OCCCN4CCC5(CCNC5=O)C4)cc23)c1 (centres unmarked) [Example 70, 4-(3′-ethynylphenylamino)-6-[3-(2,7-diazaspiro[4.4]-nonane-1-ketone-7-yl)-propoxy]-7-methoxyquinazoline]
10 to 100 | C#Cc1cccc(Nc2ncnc3cc(OC)c(OCCCN4CCC5(CC4)CCN(C)C5=O)cc23)c1 [Example 44, 4-(3′-ethynylphenylamino)-6-[3-(2-methyl-2,8-diazaspiro[4.5]decane-3-ketone-8-yl)propoxy]-7-methoxyquinazoline]
10 to 100 | COc1cc2ncnc(Nc3cc(Cl)ccc3F)c2cc1OCCCN1CCC2(CCN(C)C2)C1 (centres unmarked) [Example 64, 4-(5′-chloro-22′-fluorophenylamino)-6-[3-(7-methyl-2,7-diazaspiro[4.4]nonane-2-yl)-propoxy]-7-methoxyquinazoline]
